What was measured:
Conditions in all cases: lowest tested rate giving 80% or greater inhibition, approx. 14 days after planting and treating, greenhouse
DIGSA = test: Pre-emergence herbicidal activity on DIGSA (large crabgrass); format: in vivo, Digitaria sanguinalis
Excerpt: (§1) All such uses, and the biological activity enabling such uses, are embraced by the term “herbicidal” herein. Tables 15 and 16 summarize results of tests conducted as described below to determine the pre-emergence herbicidal activity, in the form of a GR80 value, of illustrative compounds of this invention. […] Where herbicidal activity was evident but 80% inhibition was not achieved at the highest rate tested (typically 1000 g/ha), an asterisk (*) is shown in the following tables. Herbicidal activity evident in the form of symptoms of phytotoxicity, in the absence of at least 80% inhibition at any rate, is indicated in the tables by “phyto”. A blank cell in the following tables indicates no herbicidal or phytotoxic response at any rate tested.
(§2) The pre-emergence tests were conducted by the following procedure. Topsoil was sieved to pass through a 1.27 cm screen. Fertilizer was added to the topsoil and the mixture was then sterilized by heating. The topsoil mixture was placed in a pot and compacted to a depth of 1.0 to 1.25 cm from the top of the pot. Seeds of each of several monocotyledonous and dicotyledonous annual plant species were placed on top of the soil. Additional soil was subsequently placed over the seeds to level-fill the pot. A known amount of each test compound dissolved or suspended in an appropriate organic solvent was diluted with a 50:50 mix of acetone and water and applied to the surface of the soil. After treatment the plants were placed in a greenhouse with a 30/21° C. day/night temperature regime where they received 0.64 cm of overhead irrigation. All subsequent watering consisted of a light overhead mist and/or subirrigation as needed for germination and growth.
(§3) Approximately 14 days after planting and treating, the plants were observed and herbicidal efficacy recorded as percent inhibition by comparison with untreated plants.
(§4) The plant species usually regarded as weeds which were utilized in the tests are identified in the tables below according to the following legend, in which “d” indicates a dicotyledonous species and “m” a monocotyledonous species. All monocotyledonous species included in the tests herein are grasses.

DATST = test: Pre-emergence herbicidal activity on DATST (jimsonweed); format: in vivo, Datura stramonium
Excerpt: as §1, §2, §3, §4

PANMI = test: Pre-emergence herbicidal activity on PANMI (wild proso millet); format: in vivo, Panicum miliaceum
Excerpt: as §1, §2, §3, §4

SETFA = test: Pre-emergence herbicidal activity on SETFA (giant foxtail); format: in vivo, Setaria faberi
Excerpt: as §1, §2, §3, §4

ECHCG = test: Pre-emergence herbicidal activity on ECHCG (barnyardgrass); format: in vivo, Echinochloa crus-galli
Excerpt: as §1, §2, §3, §4

PANDI = test: Pre-emergence herbicidal activity on PANDI (fall panicum); format: in vivo, Panicum dichotomiflorum
Excerpt: as §1, §2, §3, §4

ABUTH = test: Pre-emergence herbicidal activity on ABUTH (velvetleaf); format: in vivo, Abutilon theophrasti
Excerpt: as §1, §2, §3, §4

AMARE = test: Pre-emergence herbicidal activity on AMARE (redroot pigweed); format: in vivo, Amaranthus retroflexus
Excerpt: as §1, §2, §3, §4

SORHA = test: Pre-emergence herbicidal activity on SORHA (johnsongrass, seedling); format: in vivo, Sorghum halepense
Excerpt: as §1, §2, §3, §4

POROL = test: Pre-emergence herbicidal activity on POROL (common purslane); format: in vivo, Portulaca oleracea
Excerpt: as §1, §2, §3, §4

BRAPP = test: Pre-emergence herbicidal activity on BRAPP (broadleaf signalgrass); format: in vivo, Brachiaria platyphylla
Excerpt: as §1, §2, §3, §4

CONAR = test: Pre-emergence herbicidal activity on CONAR (field bindweed); format: in vivo, Convolvulus arvensis
Excerpt: as §1, §2, §3, §4

CIRAR = test: Pre-emergence herbicidal activity on CIRAR (canada thistle, seedling); format: in vivo, Cirsium arvense
Excerpt: as §1, §2, §3, §4

SOLNI = test: Pre-emergence herbicidal activity on SOLNI (black nightshade); format: in vivo, Solanum nigrum
Excerpt: as §1, §2, §3, §4

CHEAL = test: Pre-emergence herbicidal activity on CHEAL (common lambsquarters); format: in vivo, Chenopodium album
Excerpt: as §1, §2, §3, §4

Row | Compound | Pre-emergence activity (GR80) on DIGSA (DIGSA) | Pre-emergence activity (GR80) on DATST (DATST) | Pre-emergence activity (GR80) on PANMI (PANMI) | Pre-emergence activity (GR80) on SETFA (SETFA) | Pre-emergence activity (GR80) on ECHCG (ECHCG) | Pre-emergence activity (GR80) on PANDI (PANDI) | Pre-emergence activity (GR80) on ABUTH (ABUTH) | Pre-emergence activity (GR80) on AMARE (AMARE) [g/ha] | Pre-emergence activity (GR80) on SORHA (SORHA) | Pre-emergence activity (GR80) on PORAL (POROL) [g/ha] | Pre-emergence activity (GR80) on BRAPP (BRAPP) | Pre-emergence activity (GR80) on CONAR (CONAR) | Pre-emergence activity (GR80) on CIRAR (CIRAR) | Pre-emergence activity (GR80) on SOLNI (SOLNI) [g/ha] | Pre-emergence activity (GR80) on CHEAL (CHEAL) [g/ha]
1 | CC(CNC(=O)c1cccc(C(F)(F)F)c1)NC(=O)c1cccc(F)c1Cl (centres unmarked) [Example 37] | 250 g/ha | 250 g/ha | 500 g/ha | 250 g/ha | 1000 g/ha | 250 g/ha | 250 g/ha | 64 | 1000 g/ha | 64 | 500 g/ha | 250 g/ha | 250 g/ha | 250 | 125
2 | CC(CNC(=O)c1cccc(C(F)(F)F)c1)NC(=O)c1cccc(Br)c1F (centres unmarked) [Example 56] | 64 g/ha | 250 g/ha | 125 g/ha | 125 g/ha | 750 g/ha | 250 g/ha | 500 g/ha | 64 | 750 g/ha | 32 | 500 g/ha | * (Where herbicidal activity was evident but 80% inhibition was not achieved at the highest rate tested (typically 1000 g/ha), an asterisk (*) is shown) | 32 g/ha | 64 | 32
3 | Cc1c(Br)cccc1C(=O)NC(C)CNC(=O)c1cccc(C(F)(F)F)c1 (centres unmarked) [Example 57] | 500 g/ha | 125 g/ha | 750 g/ha | 250 g/ha | * (Where herbicidal activity was evident but 80% inhibition was not achieved at the highest rate tested (typically 1000 g/ha), an asterisk (*) is shown) | 125 g/ha | 750 g/ha | 64 | * (Where herbicidal activity was evident but 80% inhibition was not achieved at the highest rate tested (typically 1000 g/ha), an asterisk (*) is shown) | 125 | 750 g/ha | 250 g/ha | 500 g/ha | 250 | 32
4 | Cc1cccc(C(=O)NC(C)CNC(=O)c2cccc(C(F)(F)F)c2)c1Cl (centres unmarked) [Example 65] | 250 g/ha | 250 g/ha | 750 g/ha | 250 g/ha | 500 g/ha | 125 g/ha | 250 g/ha | 125 | * (Where herbicidal activity was evident but 80% inhibition was not achieved at the highest rate tested (typically 1000 g/ha), an asterisk (*) is shown) | 125 | 500 g/ha | 250 g/ha | 125 g/ha | 500 | 32
5 | Cc1cccc(C(=O)NC(C)CNC(=O)c2cccc(C(F)(F)F)c2)c1Br (centres unmarked) [Example 66] | 750 g/ha | 500 g/ha | 750 g/ha | 500 g/ha | 750 g/ha | 500 g/ha | 250 g/ha | 250 | * (Where herbicidal activity was evident but 80% inhibition was not achieved at the highest rate tested (typically 1000 g/ha), an asterisk (*) is shown) | 500 | 1000 g/ha | 250 g/ha | 500 g/ha | 750 | 125
6 | CC(CNC(=O)c1cccc(C(F)(F)F)c1)NC(=O)c1cccc(SC(F)(F)F)c1 (centres unmarked) [Example 73] | phyto | phyto | phyto | phyto | phyto | * (Where herbicidal activity was evident but 80% inhibition was not achieved at the highest rate tested (typically 1000 g/ha), an asterisk (*) is shown) | phyto | 250 | phyto | 750 | phyto | phyto | phyto | 1000 | 750
7 | Cc1ccccc1C(=O)NC(C)CNC(=O)c1cccc(C(F)(F)F)c1 (centres unmarked) [Example 109] | 250 g/ha | 500 g/ha | 1000 g/ha | 750 g/ha | phyto | 750 g/ha | phyto | 250 | * (Where herbicidal activity was evident but 80% inhibition was not achieved at the highest rate tested (typically 1000 g/ha), an asterisk (*) is shown) | 750 | * (Where herbicidal activity was evident but 80% inhibition was not achieved at the highest rate tested (typically 1000 g/ha), an asterisk (*) is shown) | phyto | 750 g/ha | 750 | 750
8 | C[C@H](CNC(=O)c1cccc(C(F)(F)F)c1)NC(=O)Oc1cccc(C(F)(F)F)c1 [Example 229, R—N-[1-methyl-2-(3-trifluoromethyl)phenylcarbonylamino]ethyl-3-(trifluoromethyl)phenylcarbamate] | 1000 g/ha | phyto | phyto | phyto | phyto | 300 g/ha | * (Where herbicidal activity was evident but 80% inhibition was not achieved at the highest rate tested (typically 1000 g/ha), an asterisk (*) is shown) | 300 | phyto | 100 |  | phyto | 300 g/ha | 1000 | 300
